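Step 1: Grow cells in 96-well plates. Step 2: Expose to compound for 48 hours at 5 concentrations. Step 3: Interpolate endpoints linearly; if unreached, use highest concentration. Abbreviation: GI50, concentration required for 50% inhibition of growth. TGI: total growth inhibition.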 Bounds are passed on as bounds.

For one assay, the system named is HCT-15 colon. Nature of the assay: NCI anticancer screen, dose series, 48 h.
For `Nc1ccccc1S(=O)(=O)N(CC(=O)O)c1ccccc1`, the TGI was more than 100 µM.

On to `Cc1cc(NS(=O)(=O)c2ccc(Nc3c4ccccc4nc4c(C(=O)N5CCN(CCOS(C)(=O)=O)CC5)cccc34)cc2)no1`, for which the TGI is more than 100 µM.

Take `C=CCO[C@H]1CO[C@H]2[C@@H]1OC[C@@H]2Oc1ccc(Nc2ccnc(Nc3ccc(O[C@H]4CO[C@H]5[C@@H]4OC[C@@H]5OCC=C)c(Cl)c3)n2)cc1Cl`: the GI50 was 1.48 µM and the TGI amounted to 3.06 µM.

As for `CCN(CC)N=Nc1c(C(N)=O)n[nH]c1C`, the TGI was more than 100 µM.

With `COc1cc2ccnc([C@@H](OC(=O)c3ccccc3)c3ccc(OC)c(OC)c3OC)c2cc1OC`, the TGI is more than 100 µM.

In turn, `COc1ccc(CC2c3cc4c(cc3CCN2C)OCO4)c(C=O)c1OC` (stereo unspecified) registered a TGI of more than 100 µM.

As to `CCn1c(C)nn2c(=O)c3ccccc3nc2c1=O`, the TGI is more than 100 µM.

On to `O=C(O)CCNCCCNCCC(=O)O`, for which the TGI is more than 100 µM.

Consider `CC(=O)[CH-]C(=O)c1ccccc1.CC(=O)[CH-]C(=O)c1ccccc1.CN(C)c1ccc([O-])cc1.CN(C)c1ccc([O-])cc1.Cl.[Ti+4]`, for which the GI50 is 25.5 µM and the TGI was more than 31.6 µM.

Take `Cc1nc2sccn2c1-c1csc(Nc2ccccc2Cl)n1`: the GI50 is 2.64 µM and the TGI is 32.5 µM.

Consider `Nc1nc(-n2c(-c3ccccc3)nc3c(Br)cc(Br)cc3c2=O)nnc1-c1cccc(Cl)c1Cl`, for which the GI50 was 3.1 µM and the TGI was 21.9 µM.

As to `NC1=NCCC1(c1ccccc1)c1ccccn1` (stereo unspecified), the TGI is more than 100 µM.

With `COC(=O)c1ccccc1NC(=O)C(=O)Cc1nc2c3c(ccc2[nH]c1=O)C(=O)c1ccccc1C3=O`, the TGI is more than 100 µM.

On to `CCOC(=O)C(C)(C)Oc1ccc2c(-c3ccccc3)cc(=O)oc2c1`, for which the TGI is more than 100 µM.

In turn, `CCCC1C(=O)CCc2c(OC)ccc(OC)c21` (stereo unspecified) had a TGI of more than 100 µM.

For `O=C(Nc1nc2ccc([N+](=O)[O-])cc2s1)C(=O)C(C1OC(=O)c2ccccc21)[N+](=O)[O-]` (stereo unspecified), the TGI was more than 100 µM.

As for `CCC[CH2][Sn]([CH2]CCC)([S]c1cccc2cccnc12)[S]c1cccc2cccnc12`, the GI50 was 0.176 µM and the TGI is 0.411 µM.

The molecule `COC(=O)C1(C(C)C)CCc2c(OC)ccc(OC)c2C1=O` (stereo unspecified) displayed a TGI of more than 100 µM.

In the next assay the test system is NCI/ADR-RES ovarian. The assay is described as follows: NCI anticancer screen, dose series, 48 h.
Turning to `Cc1cnc(NCCCN(C)C)c2c1[nH]c1ccc3cc(O)ccc3c12`, the TGI amounted to 20.1 µM.

Turning to `CC1CCc2nc[nH]c(=O)c21` (stereo unspecified), the GI50 is more than 100 µM and the TGI is more than 100 µM.

Consider `CCOC1Oc2ccccc2C(=O)/C1=C/Nc1ccc(C(C)=O)cc1` (stereo unspecified), for which the GI50 is 15.6 µM and the TGI turned out to be 38.6 µM.

`COC1/C=C/OC2(C)Oc3c(C)c(O)c4c(O)c(c(/C=N/Nc5ccc([N+](=O)[O-])cc5[N+](=O)[O-])c(O)c4c3C2=O)NC(=O)C(C)=C/C=C/C(C)C(O)C(C)C(O)C(C)C(OC(C)=O)C1C` (stereo unspecified): the GI50 was 22.2 µM and the TGI was more than 50 µM.

Turning to `C=CCO[C@H]1CO[C@H]2[C@@H]1OC[C@@H]2Oc1ccc(Nc2ccnc(Nc3ccc(O[C@H]4CO[C@H]5[C@@H]4OC[C@@H]5OCC=C)c(Cl)c3)n2)cc1Cl`, the GI50 was 1.78 µM and the TGI amounted to 3.85 µM.

`CCN(CC)N=Nc1c(C(N)=O)n[nH]c1C` displayed a TGI of more than 100 µM.

On to `COc1ccc(CC2c3cc4c(cc3CCN2C)OCO4)c(C=O)c1OC` (stereo unspecified), for which the TGI is more than 100 µM.

Turning to `Cc1nc2sccn2c1-c1csc(Nc2ccccc2Cl)n1`, the GI50 is 2.61 µM and the TGI came out at 14.5 µM.

As to `Nc1nc(-n2c(-c3ccccc3)nc3c(Br)cc(Br)cc3c2=O)nnc1-c1cccc(Cl)c1Cl`, the GI50 is 2.01 µM and the TGI came to 6.88 µM.

For the next assay, the system named is NCI-H226 lung. The assay is described as follows: NCI anticancer screen, dose series, 48 h.
For `Cc1cnc(NCCCN(C)C)c2c1[nH]c1ccc3cc(O)ccc3c12`, the TGI amounted to 1.73 µM.

Regarding `CC1CCc2nc[nH]c(=O)c21` (stereo unspecified), the GI50 is more than 100 µM and the TGI is more than 100 µM.

In turn, `Cc1c(C(=O)CC(=O)C(=O)Nc2ccccc2C(F)(F)F)[n+](=O)c2ccccc2n1[O-]` registered a TGI of more than 100 µM.

In turn, `Cc1cc(N(CCC#N)CCC#N)ccc1N=Nc1ccc(S(N)(=O)=O)cc1` showed a TGI of more than 100 µM.

For the molecule `CCOC1Oc2ccccc2C(=O)/C1=C/Nc1ccc(C(C)=O)cc1` (stereo unspecified), the GI50 is 26.7 µM and the TGI is 68.1 µM.

For the molecule `C1=C2/CC[C@H](Sc3ccccc3)C2C2(CCCCC/1)OCCO2` (stereo partly specified), the TGI is 60.4 µM.

Regarding `COC1/C=C/OC2(C)Oc3c(C)c(O)c4c(O)c(c(/C=N/Nc5ccc([N+](=O)[O-])cc5[N+](=O)[O-])c(O)c4c3C2=O)NC(=O)C(C)=C/C=C/C(C)C(O)C(C)C(O)C(C)C(OC(C)=O)C1C` (stereo unspecified), the GI50 is 1.35 µM and the TGI is 3.89 µM.

The molecule `O=C(CCc1nc(=S)[nH][nH]1)Nc1cc(Cl)c(Cl)cc1Cl` returned a TGI of more than 100 µM.

The molecule `Cc1cc(NS(=O)(=O)c2ccc(Nc3c4ccccc4nc4c(C(=O)N5CCN(CCOS(C)(=O)=O)CC5)cccc34)cc2)no1` gave a TGI of more than 100 µM.

In the case of `C=CCO[C@H]1CO[C@H]2[C@@H]1OC[C@@H]2Oc1ccc(Nc2ccnc(Nc3ccc(O[C@H]4CO[C@H]5[C@@H]4OC[C@@H]5OCC=C)c(Cl)c3)n2)cc1Cl`, the GI50 is 7.46 µM and the TGI is 72.3 µM.

Consider `CCN(CC)N=Nc1c(C(N)=O)n[nH]c1C`, for which the TGI was more than 100 µM.

`COc1cc2ccnc([C@@H](OC(=O)c3ccccc3)c3ccc(OC)c(OC)c3OC)c2cc1OC` yielded a TGI of more than 100 µM.

Molecule `COc1ccc(CC2c3cc4c(cc3CCN2C)OCO4)c(C=O)c1OC` (stereo unspecified) returned a TGI of more than 100 µM.

As for `O=C(O)CCNCCCNCCC(=O)O`, the TGI was more than 100 µM.

`CC(=O)[CH-]C(=O)c1ccccc1.CC(=O)[CH-]C(=O)c1ccccc1.CN(C)c1ccc([O-])cc1.CN(C)c1ccc([O-])cc1.Cl.[Ti+4]`: the GI50 was 18.2 µM and the TGI is 30.9 µM.

Consider `Cc1nc2sccn2c1-c1csc(Nc2ccccc2Cl)n1`, for which the GI50 was 3.38 µM and the TGI came to 45.1 µM.

In the case of `Nc1nc(-n2c(-c3ccccc3)nc3c(Br)cc(Br)cc3c2=O)nnc1-c1cccc(Cl)c1Cl`, the GI50 is 24.1 µM and the TGI is more than 100 µM.

For the molecule `NC1=NCCC1(c1ccccc1)c1ccccn1` (stereo unspecified), the TGI is more than 100 µM.

In turn, `COC(=O)c1ccccc1NC(=O)C(=O)Cc1nc2c3c(ccc2[nH]c1=O)C(=O)c1ccccc1C3=O` displayed a TGI of 16.7 µM.

For the molecule `CCOC(=O)C(C)(C)Oc1ccc2c(-c3ccccc3)cc(=O)oc2c1`, the TGI was determined as 87.4 µM.

Turning to `O=C(Nc1nc2ccc([N+](=O)[O-])cc2s1)C(=O)C(C1OC(=O)c2ccccc21)[N+](=O)[O-]` (stereo unspecified), the TGI is more than 100 µM.

(Values after PubChem BioAssay (NCI).)
